In one assay the test system is rat cortical neurons. Kind of assay: Neurite outgrowth in primary neuronal cultures assay. The class given is cell-based. The conditions noted are these: 72 h, vs DMSO control, at 10 μM or less. Further details: key: A: Statistically significant mean increase as a percent of DMSO control at 10 μM or less; B: No statistically significant mean increase as a percent of DMSO control at 10 μM or less. The text has this:
Neurite Outgrowth in Primary Neuronal Cultures Assay. Changes in the pattern of neurite outgrowth have been implicated in psychiatric and neurodegenerative disorders as well as traumatic injuries. The discovery of new compounds that can positively affect neuritogenesis are important for developing new therapeutics for neurological diseases. Measurement of neurite outgrowth of rat cortical neurons using an automated image-based assay was used to determine the neuroplastic effects of the compounds of the present invention. The neurite outgrowth assay was performed at Neurofit SAS (France) as described below.
Pregnant Wistar rats (Janvier; France) were used for the study. They were delivered 6 days before their use. Upon arrival at Neurofit animal facility, they were housed one per cage and maintained in a room with controlled temperature (21-22° C.) and a reversed light-dark cycle (12 h/12 h; lights on: 17:30-05:30; lights off: 05:30-17:30) with food and water available ad libitum.
Female Wistar rats of 17 days gestation were killed by cervical dislocation and the fetuses were removed from the uterus. Their brains were placed in ice-cold medium of Leibovitz (L15, Gibco, Fisher bioblock, France). Cortices were dissected and meninges were carefully removed. The cortical neurons were dissociated by trypsinization for 30 min at 37° C. (trypsin-EDTA, Gibco) in presence of 0.1 mg/ml DNAse I (Roche, France). The reaction was stopped by addition of Dulbecco's Modified Eagle Medium (DMEM; Gibco) with 10% of fetal bovine serum (FBS; Gibco). The suspension was triturated with a 10-ml pipette and using a needle syringe 21 G and centrifuged at 350×g for 10 min at room temperature. The pellet of dissociated cells was resuspended in a medium consisting of Neurobasal (Gibco) supplemented with 2% B27 supplement (Gibco), 0.5 mM L-Glutamine (Gibco), an antibiotic-antimicotic mixture. Viable cells were counted in a Neubauer cytometer using the trypan blue exclusion test (Sigma). Cells were seeded at a density of 10000 cells per well in 96-well plate (Costar) precoated with poly-L-lysine. Test compound at different concentrations were added to the cultures. Donepezil (positive control) was tested at 250 nM.
After 72 h (3 days) of plating, cultures were fixed with paraformaldehyde in PBS (4%, Sigma) for 30 min at 4° C. Then, cells were successively permeabilized with 0.1% Triton X100 for 30 min, saturated with PBS containing 3% of BSA and were incubated 1 h with anti-beta III tubulin antibody (Sigma) at 1/10000 in PBS containing 0.5% of BSA. Cells were washed three times with PBS containing 0.5% of BSA, and they were incubated 1 h with goat anti-mouse antibody coupled with AF488 (Invitrogen A11001) diluted at 1/1000 in PBS containing 0.5% of BSA. Finally, nuclei were staining with DAPI 1 mg/ml at 1/1000 in PBS containing 0.5% of BSA. After rinsing with PBS, the plate was filmed and neurite networks were examined and analyzed using High-Content Screening (CellInsight, Thermo Scientific). The average number of neurites per neuron and the average total length of neurites per neuron were the main parameters analyzed. Analysis of data was performed using analysis of variance (ANOVA). The Fisher's Protected Least Significant Difference test was used for multiple comparisons. A p value <0.05 was considered significant. The software used is StatView 5.0 from SAS Institut.

The target in assay [1] is T1, 5-HT2A (Homo sapiens, UniProt P28223). Kind of assay: Serotonin 5-HT2A in vitro cellular IPOne agonism assay (HTRF). It counts as cell-based. Further details: host or cells: CHO-K1. For orientation: Time-resolved FRET reads energy transfer from a long-lived donor to a nearby acceptor.
T1 sequence (P28223 whole entry): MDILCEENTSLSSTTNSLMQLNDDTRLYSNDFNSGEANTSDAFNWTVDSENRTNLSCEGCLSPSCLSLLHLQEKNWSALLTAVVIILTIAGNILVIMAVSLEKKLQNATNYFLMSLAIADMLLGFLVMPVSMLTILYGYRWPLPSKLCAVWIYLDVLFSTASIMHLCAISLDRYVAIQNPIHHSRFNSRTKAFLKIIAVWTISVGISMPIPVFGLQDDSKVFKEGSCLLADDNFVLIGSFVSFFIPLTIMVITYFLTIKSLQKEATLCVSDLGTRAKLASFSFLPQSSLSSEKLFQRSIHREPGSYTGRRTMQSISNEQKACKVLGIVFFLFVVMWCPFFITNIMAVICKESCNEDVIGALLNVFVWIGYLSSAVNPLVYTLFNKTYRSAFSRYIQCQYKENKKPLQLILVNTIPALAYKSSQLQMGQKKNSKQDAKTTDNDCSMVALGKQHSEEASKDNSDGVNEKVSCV
Assay [2] has as its target T1, 5-HT2A. The assay can be described thus: Serotonin 5-HT2A in vitro radioligand binding competition assay ([3H]-DOI). Further details: Epics Therapeutics S.A. (Belgium) FAST-0505B; host or cells: membrane extracts.
Setting [3] is: 5-HT2A IPOne Agonism Activity, CHO-K1 cells, 60 min at 37° C.
[4] abbreviates: 5-HT2A Radioligand Binding Activity, competition with [3H]-DOI, membrane extracts.

pEC50, pIC50: −log10 of the molar value. Like-named read-outs stand apart in the source and are kept apart here. Some results are limits rather than exact numbers.

Consider `CCN(CC)C(=O)[C@@H]1C=C(c2cccc3[nH]ccc23)CN(C)C1` (single isomer, unassigned) [Compound 11, N,N-diethyl-5-(1H-indol-4-yl)-1-methyl-1,2,3,6-tetrahydropyridine-3-carboxamide], for which, in the assay on rat cortical neurons, the “Increase in Neurite Length” value is on record as “A” and the “Increase in Neurite Number” value is reported as “A”.

In the case of `NC1Cc2cc(Cl)cc3ccn(c23)C1` (stereo not shown) [Compound 21, 8-chloro-5,6-dihydro-4H-pyrrolo[3,2,1-ij]quinolin-5-amine], the pEC50 on 5-HT2A [1] is 5.00 to 6.00. This compound gave a pIC50 at 5-HT2A [2] of 5.00 to 6.00.

Regarding `NC1Cc2cc(F)cc3ccn(c23)C1` (stereo not shown) [Compound 17, 8-fluoro-5,6-dihydro-4H-pyrrolo[3,2,1-ij]quinolin-5-amine], the pEC50 on 5-HT2A [1] was under 5.00. The compound also showed a pIC50 on 5-HT2A [2] of 5.00 to 6.00.

Regarding `CN(C)C1Cc2cccc3ccn(c23)C1` (single isomer, unassigned) [Compound 15, N,N-dimethyl-5,6-dihydro-4H-pyrrolo[3,2,1-ij]quinolin-5-amine], in the assay with rat cortical neurons, the “Increase in Neurite Length” value was “B” and the “Increase in Neurite Number” value is reported as “B”. For the same compound, the pEC50 on 5-HT2A [1] (read-out: 5-HT2A IPOne Agonism Activity, CHO-K1 cells, 60 min at 37° C.) is under 5.00. Further, on 5-HT2A [2] (read-out: 5-HT2A Radioligand Binding Activity, competition with [3H]-DOI, membrane extracts), the pIC50 was 6.00 to 7.00.

At 5-HT2A [1], `COc1cc2c3c(ccn3CC(N)C2)c1` (stereo not shown) [Compound 25, 8-methoxy-5,6-dihydro-4H-pyrrolo[3,2,1-ij]quinolin-5-amine] gave a pEC50 of under 5.00. Also, the pIC50 on 5-HT2A [2] was under 5.00.

With `CCN(CC)C1Cc2cccc3ccn(c23)C1` (stereo not shown) [Compound 16, N,N-diethyl-5,6-dihydro-4H-pyrrolo[3,2,1-]quinolin-5-amine], in the assay with rat cortical neurons, the “Increase in Neurite Length” value is given as “A” and the “Increase in Neurite Number” value was “A”. This compound also had a pEC50 at 5-HT2A [1] of 6.00 to 7.00. Also, on 5-HT2A [2], the pIC50 was 6.00 to 7.00.

Take `NC1Cc2cccc3ccn(c23)C1` (stereo not shown) [Compound 13, 5,6-dihydro-4H-pyrrolo[3,2,1-ij]quinolin-5-amine]: in the assay with rat cortical neurons, the “Increase in Neurite Length” value is “A” and the “Increase in Neurite Number” value was “A”. On 5-HT2A [1], this compound showed a pEC50 of under 5.00. This compound gave a pIC50 on 5-HT2A [2] of 5.00 to 6.00.

Take `NC1Cc2cccc3[nH]cc(c23)C1` (stereo not shown) [Compound 27, 1,3,4,5-tetrahydrobenzo[cd]indol-4-amine]: in the assay on rat cortical neurons, the “Increase in Neurite Length” value is on record as “A” and the “Increase in Neurite Number” value was “A”. Besides, at 5-HT2A [1], the pEC50 is 5.00 to 6.00. On 5-HT2A [2], this compound had a pIC50 of 5.00 to 6.00.

As for `CCN(CC)C(=O)[C@@H]1C=C(c2cccc3[nH]ccc23)CN(C)C1` (single isomer, unassigned) [Compound 12, N,N-diethyl-5-(1H-indol-4-yl)-1-methyl-1,2,3,6-tetrahydropyridine-3-carboxamide], in the assay on rat cortical neurons, the “Increase in Neurite Length” value is reported as “A” and the “Increase in Neurite Number” value is on record as “A”.

As for `CCN(CC)C(=O)[C@@H]1C=C(c2cccc(OC)c2)CN(C)C1` (single isomer, unassigned) [Compound 9, N,N-diethyl-5-(3-methoxyphenyl)-1-methyl-1,2,3,6-tetrahydropyridine-3-carboxamide], in the assay with rat cortical neurons, the “Increase in Neurite Length” value is “A” and the “Increase in Neurite Number” value is given as “A”. This compound also showed a pEC50 on 5-HT2A [1] (setting [3]) of 7.00 to 8.00. At 5-HT2A [2] (setting [4]), this compound gave a pIC50 of 7.00 to 8.00.

As for `NC1Cc2c(Cl)ccc3ccn(c23)C1` (stereo not shown) [Compound 23, 7-chloro-5,6-dihydro-4H-pyrrolo[3,2,1-ij]quinolin-5-amine], the pEC50 on 5-HT2A [1] is 5.00 to 6.00. On 5-HT2A [2], this compound showed a pIC50 of 5.00 to 6.00.

As for `CCN(CC)C(=O)[C@@H]1C=C(c2cc(OC)cc(OC)c2)CN(C)C1` (single isomer, unassigned) [Compound 5, 5-(3,5-dimethoxyphenyl)-N,N-diethyl-1-methyl-1,2,3,6-tetrahydropyridine-3-carboxamide], in the assay with rat cortical neurons, the “Increase in Neurite Length” value was “A” and the “Increase in Neurite Number” value is “A”. Besides, the pEC50 at 5-HT2A [1] (setting [3]) is 7.00 to 8.00. For the same compound, the pIC50 at 5-HT2A [2] (setting [4]) was 6.00 to 7.00.

Take `CCN(CC)C(=O)[C@@H]1C=C(c2ccccc2OC)CN(C)C1` (single isomer, unassigned) [Compound 8, N,N-diethyl-5-(2-methoxyphenyl)-1-methyl-1,2,3,6-tetrahydropyridine-3-carboxamide]: in the assay on rat cortical neurons, the “Increase in Neurite Length” value is “A” and the “Increase in Neurite Number” value is reported as “A”. Also, the pEC50 on 5-HT2A [1] (setting [3]) is 6.00 to 7.00. The pIC50 at 5-HT2A [2] (setting [4]) is 6.00 to 7.00.

In the case of `NC1Cc2c(F)ccc3ccn(c23)C1` (stereo not shown) [Compound 19, 7-fluoro-5,6-dihydro-4H-pyrrolo[3,2,1-ij]quinolin-5-amine], at 5-HT2A [1], the pEC50 was under 5.00. This compound also showed a pIC50 on 5-HT2A [2] of under 5.00.

For `CCN(CC)C(=O)[C@@H]1C=C(c2cc(OC)cc(OC)c2)CN(C)C1` (single isomer, unassigned) [Compound 6, 5-(3,5-dimethoxyphenyl)-N,N-diethyl-1-methyl-1,2,3,6-tetrahydropyridine-3-carboxamide], in the assay with rat cortical neurons, the “Increase in Neurite Length” value is on record as “A” and the “Increase in Neurite Number” value is listed as “A”. The compound further gave a pEC50 at 5-HT2A [1] (setting [3]) of 6.00 to 7.00. In addition, the pIC50 on 5-HT2A [2] (setting [4]) is 5.00 to 6.00.

For the compound `CCN(CC)C(=O)[C@@H]1C=C(c2ccccc2OC)CN(C)C1` (single isomer, unassigned) [Compound 7, N,N-diethyl-5-(2-methoxyphenyl)-1-methyl-1,2,3,6-tetrahydropyridine-3-carboxamide], in the assay with rat cortical neurons, the “Increase in Neurite Length” value is reported as “B” and the “Increase in Neurite Number” value is recorded as “B”. In addition, the pEC50 on 5-HT2A [1] (setting [3]) was 7.00 to 8.00. For the same compound, the pIC50 at 5-HT2A [2] (setting [4]) was 7.00 to 8.00.

Regarding `CN(C)C1Cc2cccc3ccn(c23)C1` (single isomer, unassigned) [Compound 14, N,N-dimethyl-5,6-dihydro-4H-pyrrolo[3,2,1-ij]quinolin-5-amine], in the assay with rat cortical neurons, the “Increase in Neurite Length” value is “A” and the “Increase in Neurite Number” value is given as “A”. At 5-HT2A [1], this compound showed a pEC50 of under 5.00. This compound had a pIC50 at 5-HT2A [2] of 6.00 to 7.00.

With `CCN(CC)C(=O)[C@@H]1C=C(c2cccc(OC)c2)CN(C)C1` (single isomer, unassigned) [Compound 10, N,N-diethyl-5-(3-methoxyphenyl)-1-methyl-1,2,3,6-tetrahydropyridine-3-carboxamide], in the assay with rat cortical neurons, the “Increase in Neurite Length” value is recorded as “A” and the “Increase in Neurite Number” value is given as “A”. Besides, the pEC50 on 5-HT2A [1] (setting [3]) is 6.00 to 7.00. Also, the pIC50 at 5-HT2A [2] (setting [4]) is 6.00 to 7.00.

Values taken from patent publication US20230295106A1 (priority 2019, published 2023).
